Test results from PMC4233179 (Molecular cancer research : MCR, 2014).

Target: T1, NEDD4-1 (Homo sapiens, UniProt P46934)
T1 sequence (P46934 1-1319): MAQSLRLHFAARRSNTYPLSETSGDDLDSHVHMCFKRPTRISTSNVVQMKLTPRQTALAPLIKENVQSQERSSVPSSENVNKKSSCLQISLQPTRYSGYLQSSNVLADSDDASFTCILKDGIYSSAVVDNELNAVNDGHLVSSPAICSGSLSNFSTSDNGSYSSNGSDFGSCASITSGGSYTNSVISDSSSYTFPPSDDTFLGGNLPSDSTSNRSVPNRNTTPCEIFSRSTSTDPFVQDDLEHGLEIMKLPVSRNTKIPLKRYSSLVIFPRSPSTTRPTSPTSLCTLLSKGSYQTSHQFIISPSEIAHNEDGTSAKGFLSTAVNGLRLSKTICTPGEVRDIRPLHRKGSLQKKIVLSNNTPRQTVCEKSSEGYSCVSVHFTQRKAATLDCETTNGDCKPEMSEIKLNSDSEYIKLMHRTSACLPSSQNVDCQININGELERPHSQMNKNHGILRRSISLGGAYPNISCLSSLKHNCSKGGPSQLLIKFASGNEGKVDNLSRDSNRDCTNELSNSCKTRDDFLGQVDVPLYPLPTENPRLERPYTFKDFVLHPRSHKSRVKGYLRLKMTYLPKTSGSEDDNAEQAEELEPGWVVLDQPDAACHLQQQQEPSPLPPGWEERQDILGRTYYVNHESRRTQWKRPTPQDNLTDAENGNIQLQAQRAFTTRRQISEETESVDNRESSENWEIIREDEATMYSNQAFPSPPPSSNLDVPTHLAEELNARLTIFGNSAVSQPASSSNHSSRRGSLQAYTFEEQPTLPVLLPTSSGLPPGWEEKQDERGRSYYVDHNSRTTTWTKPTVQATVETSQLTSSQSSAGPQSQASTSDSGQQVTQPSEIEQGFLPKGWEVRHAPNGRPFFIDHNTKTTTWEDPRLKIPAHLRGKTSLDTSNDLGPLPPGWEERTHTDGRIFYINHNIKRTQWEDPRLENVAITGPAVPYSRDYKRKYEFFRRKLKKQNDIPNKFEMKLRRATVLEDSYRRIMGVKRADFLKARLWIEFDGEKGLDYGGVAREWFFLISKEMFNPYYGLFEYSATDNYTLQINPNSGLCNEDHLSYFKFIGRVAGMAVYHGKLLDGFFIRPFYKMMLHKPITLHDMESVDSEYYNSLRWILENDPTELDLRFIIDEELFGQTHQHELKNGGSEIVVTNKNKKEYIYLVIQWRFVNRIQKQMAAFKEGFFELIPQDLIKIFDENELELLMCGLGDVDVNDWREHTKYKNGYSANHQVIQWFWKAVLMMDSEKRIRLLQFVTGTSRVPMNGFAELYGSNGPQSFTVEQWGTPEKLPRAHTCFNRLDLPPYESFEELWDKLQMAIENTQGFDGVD
Assay: isothermal titration calorimetry
Type: binding

Kd: ~88.1 µM
Structure (SMILES): OCc1c[nH]c2ccccc12 [I3C, indole-3-carbinol]
